Measured values taken from patent US20220340597A1, “HEXAHYDRO-1H-PYRAZINO[1,2-A]PYRAZINE COMPOUNDS FOR THE TREATMENT OF AUTOIMMUNE DISEASE” (Hoffmann-La Roche Inc., priority 2019, published 2022).

How the values were obtained:
human TLR9 = target: T1, human TLR9 (Homo sapiens, UniProt Q9NR96); assay: HEK293-Blue-hTLR-9 cells assay; assay type: cell-based; conditions: HEK293-Blue-hTLR9 cells, ODN2006 stimulation, 20 hrs, SEAP reporter; read-out: HEK/hTLR9 IC50
T1 construct: host or cells: HEK293 (HEK-Blue hTLR9)
T1 sequence (Q9NR96 26-1032): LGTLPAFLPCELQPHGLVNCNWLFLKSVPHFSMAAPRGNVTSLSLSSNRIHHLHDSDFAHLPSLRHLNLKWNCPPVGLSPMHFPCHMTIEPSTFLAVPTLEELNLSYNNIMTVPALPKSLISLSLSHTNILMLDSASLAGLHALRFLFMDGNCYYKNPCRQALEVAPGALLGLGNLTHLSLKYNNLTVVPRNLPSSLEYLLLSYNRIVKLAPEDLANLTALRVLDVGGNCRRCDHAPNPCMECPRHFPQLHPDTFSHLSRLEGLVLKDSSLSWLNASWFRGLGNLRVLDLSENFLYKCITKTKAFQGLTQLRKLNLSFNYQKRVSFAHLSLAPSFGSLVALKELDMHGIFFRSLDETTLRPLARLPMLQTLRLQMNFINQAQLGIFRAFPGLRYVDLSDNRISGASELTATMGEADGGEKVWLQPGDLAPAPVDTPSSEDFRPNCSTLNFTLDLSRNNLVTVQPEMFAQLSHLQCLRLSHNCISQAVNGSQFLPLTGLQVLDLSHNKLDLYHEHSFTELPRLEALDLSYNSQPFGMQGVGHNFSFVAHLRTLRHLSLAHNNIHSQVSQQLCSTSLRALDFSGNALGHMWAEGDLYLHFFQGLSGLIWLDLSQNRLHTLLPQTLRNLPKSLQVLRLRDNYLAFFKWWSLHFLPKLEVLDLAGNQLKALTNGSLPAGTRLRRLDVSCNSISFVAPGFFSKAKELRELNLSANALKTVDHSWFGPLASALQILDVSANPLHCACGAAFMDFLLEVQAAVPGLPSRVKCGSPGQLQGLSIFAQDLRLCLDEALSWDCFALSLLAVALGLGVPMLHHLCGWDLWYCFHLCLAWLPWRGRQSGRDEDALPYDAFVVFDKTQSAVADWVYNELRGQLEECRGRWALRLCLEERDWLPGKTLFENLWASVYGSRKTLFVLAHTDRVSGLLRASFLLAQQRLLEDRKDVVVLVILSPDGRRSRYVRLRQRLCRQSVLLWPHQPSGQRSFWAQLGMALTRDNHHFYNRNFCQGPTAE

hERG channel = target: T2, hERG channel (Homo sapiens, UniProt Q12809); assay: hERG channel inhibition assay (patch-clamp, CHOhERG cells); assay type: cell-based; conditions: for IC50 / IC20: CHOhERG cells, whole-cell patch-clamp; for IC20: human, CHO cells stably expressing hERG (CHOhERG); for hERG IC20/TLR7 IC50 / hERG IC20/TLR8 IC50 / hERG IC20/TLR9 IC50: safety ratio
T2 construct: expressed in transfected cells; host or cells: CHO (Chinese hamster ovary), CHOhERG
Description: hERG Channel Inhibition Assay:
The hERG K^+ channels were cloned in humans and stably expressed in a CHO (Chinese hamster ovary) cell line. CHOhERG cells were used for patch-clamp (voltage-clamp, whole-cell) experiments. Cells were stimulated by a voltage pattern to activate hERG channels and conduct IKhERG currents (rapid delayed outward rectifier potassium current of the hERG channel). After the cells were stabilized for a few minutes, the amplitude and kinetics of IKhERG were recorded at a stimulation frequency of 0.1 Hz (6 bpm). Thereafter, the test compound was added to the preparation at increasing concentrations. For each concentration, an attempt was made to reach a steady-state effect, usually, this was achieved within 3-10 min at which time the next highest concentration was applied. The amplitude and kinetics of IKhERG are recorded in each concentration of the drug which were compared to the control values (taken as 100%). (references: Redfern W S, Carlsson L, Davis A S, Lynch W G, MacKenzie I, Palethorpe S, Siegl P K, Strang I, Sullivan A T, Wallis R, Camm A J, Hammond T G. 2003; Relationships between preclinical cardiac electrophysiology, clinical QT interval prolongation and torsade de pointes for a broad range of drugs: evidence for a provisional safety margin in drug development. Cardiovasc. Res. 58:32-45, Sanguinetti M C, Tristani-Firouzi M. 2006; hERG potassium channels and cardiac arrhythmia. Nature 440:463-469, Webster R, Leishman D, Walker D. 2002; Towards a drug concentration effect relationship for QT prolongation and torsades de pointes. Curr. Opin. Drug Discov. Devel. 5:116-26).
The calculation of hERG IC20/TLR7/8/9 IC50 below serves as early selectivity index to assess hERG liability.

T2 sequence (Q12809 whole entry): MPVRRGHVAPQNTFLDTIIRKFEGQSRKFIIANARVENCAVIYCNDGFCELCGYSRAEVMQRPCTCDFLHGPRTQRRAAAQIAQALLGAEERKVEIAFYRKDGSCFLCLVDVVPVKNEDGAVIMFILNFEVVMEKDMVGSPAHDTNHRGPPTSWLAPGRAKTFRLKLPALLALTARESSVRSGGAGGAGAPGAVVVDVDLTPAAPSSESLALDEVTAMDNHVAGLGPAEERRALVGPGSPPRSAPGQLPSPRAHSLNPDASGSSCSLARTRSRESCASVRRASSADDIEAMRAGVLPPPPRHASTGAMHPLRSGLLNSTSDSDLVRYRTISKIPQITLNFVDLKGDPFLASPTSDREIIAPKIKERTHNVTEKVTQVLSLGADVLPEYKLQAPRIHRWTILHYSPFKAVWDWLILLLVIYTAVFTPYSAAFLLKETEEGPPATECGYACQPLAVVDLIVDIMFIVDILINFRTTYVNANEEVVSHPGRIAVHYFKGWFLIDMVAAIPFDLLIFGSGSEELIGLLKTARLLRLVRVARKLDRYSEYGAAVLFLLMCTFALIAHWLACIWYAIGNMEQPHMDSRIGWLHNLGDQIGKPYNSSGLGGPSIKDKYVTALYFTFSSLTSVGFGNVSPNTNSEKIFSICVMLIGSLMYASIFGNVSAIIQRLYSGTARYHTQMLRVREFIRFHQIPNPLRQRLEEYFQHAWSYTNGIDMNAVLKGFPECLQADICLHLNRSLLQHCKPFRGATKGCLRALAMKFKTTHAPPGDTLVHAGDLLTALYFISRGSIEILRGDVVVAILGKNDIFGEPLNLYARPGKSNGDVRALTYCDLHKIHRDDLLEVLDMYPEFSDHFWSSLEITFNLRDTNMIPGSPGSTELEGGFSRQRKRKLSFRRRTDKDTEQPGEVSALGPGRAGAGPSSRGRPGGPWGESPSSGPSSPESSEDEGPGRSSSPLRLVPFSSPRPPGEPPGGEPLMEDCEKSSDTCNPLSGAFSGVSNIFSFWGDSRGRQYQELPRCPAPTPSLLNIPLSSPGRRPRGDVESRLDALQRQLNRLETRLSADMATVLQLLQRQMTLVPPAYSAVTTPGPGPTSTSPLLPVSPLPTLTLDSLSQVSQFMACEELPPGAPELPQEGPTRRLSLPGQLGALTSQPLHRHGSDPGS

Row | Compound | IC50 (human TLR9) [µM] | IC50 (hERG channel) [µM] | IC20 (hERG channel) [µM] | hERG IC20/TLR7 IC50 (hERG channel) | hERG IC20/TLR8 IC50 (hERG channel) | hERG IC20/TLR9 IC50 (hERG channel)
1 | C[C@@H]1CN(c2ccc(C#N)c3ncccc23)C[C@@H]2CN(Cc3ccc4c(c3)CNCC4)CCN21 [Example 5, 5-[(4R,9aS)-4-methyl-8-(1,2,3,4-tetrahydroisoquinolin-7-ylmethyl)-3,4,6,7,9,9a-hexahydro-1H-pyrazino[1,2-a]pyrazin-2-yl]quinoline-8-carbonitrile] | < 0.032 | > 20 | > 10 | >588 | >833 | >313
2 | C[C@@H]1CN(c2ccc(C#N)c3ncccc23)C[C@@H]2CN(Cc3ccc(N4CCNCC4)nc3)CCN21 [Example 8, 5-[(4R,9aS)-4-methyl-8-[(6-piperazin-1-yl-3-pyridyl)methyl]-3,4,6,7,9,9a-hexahydro-1H-pyrazino[1,2-a]pyrazin-2-yl]quinoline-8-carbonitrile] | 0.041 | > 20 | 8.63 | 392 | 166 | 210
3 | C[C@@H]1CN(c2ccc(C#N)c3ncccc23)C[C@@H]2CN(c3cccc4c3CNC4)CCN21 [Example 9, 5-[(4R,9aS)-8-isoindolin-4-yl-4-methyl-3,4,6,7,9,9a-hexahydro-1H-pyrazino[1,2-a]pyrazin-2-yl]quinoline-8-carbonitrile] | 0.079 | > 20 | 5.17 | 1723 | 5170 | 65
4 | CO[C@@H]1CN(c2ccc(CCN3CCN4[C@@H](C3)CN(c3ccc(C#N)c5ncccc35)C[C@H]4C)cn2)C[C@H]1N [Example 12, 5-[(4R,9aS)-8-[2-[6-[(3R,4R)-3-amino-4-methoxy-pyrrolidin-1-yl]-3-pyridyl]ethyl]-4-methyl-3,4,6,7,9,9a-hexahydro-1H-pyrazino[1,2-a]pyrazin-2-yl]quinoline-8-carbonitrile] | 0.047 | > 20 | > 10 | >833 | >714 | >213
5 | C[C@@H]1CN(c2ccc(C#N)c3ncccc23)C[C@@H]2CN(CCc3ccc(N4CC5(CN(C)C5)C4)nc3)CCN21 [Example 22, 5-[(4R,9aS)-4-methyl-8-[2-[6-(6-methyl-2,6-diazaspiro[3.3]heptan-2-yl)-3-pyridyl]ethyl]-3,4,6,7,9,9a-hexahydro-1H-pyrazino[1,2-a]pyrazin-2-yl]quinoline-8-carbonitrile] | 0.047 | > 20 | > 10 | >385 | >172 | >213
6 | CO[C@H]1CN(c2ccc(CCN3CCN4[C@@H](C3)CN(c3ccc(C#N)c5ncccc35)C[C@H]4C)cn2)C[C@@H]1N [Example 25, 5-[(4R,9aS)-8-[2-[6-[(3S,4S)-3-amino-4-methoxy-pyrrolidin-1-yl]-3-pyridyl]ethyl]-4-methyl-3,4,6,7,9,9a-hexahydro-1H-pyrazino[1,2-a]pyrazin-2-yl]quinoline-8-carbonitrile] | 0.064 | > 20 | > 10 | >769 | >400 | >156
7 | C[C@@H]1CN(c2ccc(C#N)c3ncccc23)C[C@@H]2CN(c3nccc(N4CCNCC4)n3)CCN21 [Example 30, 5-[(4R,9aR)-4-methyl-8-(4-piperazin-1-ylpyrimidin-2-yl)-3,4,6,7,9,9a-hexahydro-1H-pyrazino[1,2-a]pyrazin-2-yl]quinoline-8-carbonitrile] | 0.072 | > 10 | 4.53 | 283 | 216 | 63
8 | C[C@@H]1CN(c2ccc(C#N)c3ncccc23)C[C@@H]2CN(c3cc(N4CCNCC4)ccn3)CCN21 [Example 34, 5-[(4R,9aR)-4-methyl-8-(4-piperazin-1-yl-2-pyridyl)-3,4,6,7,9,9a-hexahydro-1H-pyrazino[1,2-a]pyrazin-2-yl]quinoline-8-carbonitrile] | 0.042 | > 10 | 4.74 | 237 | 339 | 113
9 | CO[C@@H]1CN(c2nccc(N3CCN4[C@@H](C3)CN(c3ccc(C#N)c5ncccc35)C[C@H]4C)n2)C[C@H]1N [Example 36, 5-[(4R,9aR)-8-[2-[(3R,4R)-3-amino-4-methoxy-pyrrolidin-1-yl]pyrimidin-4-yl]-4-methyl-3,4,6,7,9,9a-hexahydro-1H-pyrazino[1,2-a]pyrazin-2-yl]quinoline-8-carbonitrile] | 0.068 | > 20 | 5.6 | 431 | 373 | 82
10 | CO[C@@H]1CN(c2ccnc(N3CCN4[C@@H](C3)CN(c3ccc(C#N)c5ncccc35)C[C@H]4C)n2)C[C@H]1N [Example 37, 5-[(4R,9aR)-8-[4-[(3R,4R)-3-amino-4-methoxy-pyrrolidin-1-yl]pyrimidin-2-yl]-4-methyl-3,4,6,7,9,9a-hexahydro-1H-pyrazino[1,2-a]pyrazin-2-yl]quinoline-8-carbonitrile] | 0.062 | > 10 | 4.5 | 214 | 173 | 73
11 | Cc1cc(N2CCNCC2)ncc1N1CCN2CCN(c3ccc(C#N)c4ncccc34)CC2C1 (stereo not drawn) [Example 38, 5-[2-(4-methyl-6-piperazin-1-yl-3-pyridyl)-3,4,6,7,9,9a-hexahydro-1H-pyrazino[1,2-a]pyrazin-8-yl]quinoline-8-carbonitrile] | 0.093 | > 20 | > 10 | >5000 | >1250 | >108
12 | C[C@@H]1CN(c2ccc(C#N)c3ncccc23)C[C@@H]2CN(c3nccc(N4CC(N)C4)n3)CCN21 [Example 39, 5-[(4R,9aR)-8-[4-(3-aminoazetidin-1-yl)pyrimidin-2-yl]-4-methyl-3,4,6,7,9,9a-hexahydro-1H-pyrazino[1,2-a]pyrazin-2-yl]quinoline-8-carbonitrile] | 0.095 | > 10 | 5 | 238 | 294 | 53
13 | C[C@@H]1CN(c2ccc(C#N)c3ncccc23)C[C@@H]2CN(c3ccnc(N4CC(N)C4)c3)CCN21 [Example 41, 5-[(4R,9aS)-8-[2-(3-aminoazetidin-1-yl)-4-pyridyl]-4-methyl-3,4,6,7,9,9a-hexahydro-1H-pyrazino[1,2-a]pyrazin-2-yl]quinoline-8-carbonitrile] | 0.045 | > 20 | 9.64 | 275 | 1377 | 214
